Test results: ChEMBL document CHEMBL1201862, “PubChem BioAssay data set” (2004)
The source made the active and inactive calls.

Tests used:
Paired box protein Pax-8 = Paired box protein Pax-8 (Homo sapiens, UniProt Q06710); experiment: PAX8 transcriptional activity inhibition in RMG-I – RMG-I cells, luciferase, cherry-pick, dose response (AID 687027); assay type: functional, cell-based;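 also: luciferase reporter driven by Pax8 target thyroperoxidase promoter measured by SteadyGlo luminescence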
Cytochrome P450 2C19 = Cytochrome P450 2C19 (Homo sapiens, UniProt P33261); experiment: Cytochrome panel assay with activity outcomes. Panel member name: p450-cyp2c19 Compounds with AC50 equal or less than 10 uM are considered active; assay type: functional; conditions: read-out: AC50
Sequence of Cytochrome P450 2C19 (P33261 whole entry): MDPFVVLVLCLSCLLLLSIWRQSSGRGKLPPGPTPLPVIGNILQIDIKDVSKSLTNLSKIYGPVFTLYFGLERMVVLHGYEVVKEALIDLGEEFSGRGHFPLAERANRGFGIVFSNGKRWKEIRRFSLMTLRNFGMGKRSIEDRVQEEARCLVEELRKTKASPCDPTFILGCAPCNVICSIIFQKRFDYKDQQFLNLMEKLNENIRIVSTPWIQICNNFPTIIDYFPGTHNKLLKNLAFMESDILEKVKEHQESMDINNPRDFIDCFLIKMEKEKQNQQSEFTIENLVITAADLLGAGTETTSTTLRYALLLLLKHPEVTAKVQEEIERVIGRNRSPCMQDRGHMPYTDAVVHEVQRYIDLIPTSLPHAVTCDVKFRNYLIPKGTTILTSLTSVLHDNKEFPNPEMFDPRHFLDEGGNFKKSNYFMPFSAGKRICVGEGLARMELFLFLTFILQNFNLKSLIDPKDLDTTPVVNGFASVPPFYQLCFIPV

Cytochrome P450 2D6 = Cytochrome P450 2D6 (Homo sapiens, UniProt P10635);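 also: CYP2D6 member of a cytochrome P450 panel assay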
Sequence of Cytochrome P450 2D6 (P10635 whole entry): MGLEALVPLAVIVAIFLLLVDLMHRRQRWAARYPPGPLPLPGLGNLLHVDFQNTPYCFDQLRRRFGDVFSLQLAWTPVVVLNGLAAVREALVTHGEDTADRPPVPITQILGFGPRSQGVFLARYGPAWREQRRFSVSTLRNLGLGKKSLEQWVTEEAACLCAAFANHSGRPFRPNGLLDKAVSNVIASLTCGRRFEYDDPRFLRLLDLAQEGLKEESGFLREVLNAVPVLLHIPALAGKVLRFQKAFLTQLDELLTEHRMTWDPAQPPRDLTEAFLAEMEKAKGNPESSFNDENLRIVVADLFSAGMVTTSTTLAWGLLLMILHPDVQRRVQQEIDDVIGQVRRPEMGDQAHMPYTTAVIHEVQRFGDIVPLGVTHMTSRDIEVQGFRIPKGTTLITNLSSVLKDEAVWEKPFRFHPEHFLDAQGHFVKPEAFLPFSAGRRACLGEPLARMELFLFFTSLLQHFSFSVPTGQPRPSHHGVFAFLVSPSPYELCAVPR

Cytochrome P450 3A4 = Cytochrome P450 3A4 (Homo sapiens, UniProt P08684);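 also: CYP3A4 tested as one member of a cytochrome P450 panel screen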
Sequence of Cytochrome P450 3A4 (P08684 whole entry): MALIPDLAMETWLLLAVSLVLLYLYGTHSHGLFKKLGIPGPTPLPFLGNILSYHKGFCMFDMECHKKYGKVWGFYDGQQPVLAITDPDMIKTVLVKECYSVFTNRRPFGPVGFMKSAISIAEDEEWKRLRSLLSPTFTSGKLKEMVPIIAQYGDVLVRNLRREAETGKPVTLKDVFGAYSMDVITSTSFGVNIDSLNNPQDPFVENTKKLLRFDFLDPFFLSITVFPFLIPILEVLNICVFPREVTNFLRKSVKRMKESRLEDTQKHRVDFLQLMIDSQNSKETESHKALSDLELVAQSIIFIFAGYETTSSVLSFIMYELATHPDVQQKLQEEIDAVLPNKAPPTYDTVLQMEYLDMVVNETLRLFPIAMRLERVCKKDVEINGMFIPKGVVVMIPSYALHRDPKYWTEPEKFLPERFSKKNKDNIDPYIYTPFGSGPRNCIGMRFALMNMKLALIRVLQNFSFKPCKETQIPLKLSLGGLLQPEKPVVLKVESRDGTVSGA

[1] = biological target: FAD-linked sulfhydryl oxidase ALR (Homo sapiens, UniProt P55789); experiment: ALR-catalysed DTT oxidation blockers – biochemical, H2O2 detection, luminescence, cherry-pick, dose response (AID 493248)
Sequence of FAD-linked sulfhydryl oxidase ALR (P55789 whole entry): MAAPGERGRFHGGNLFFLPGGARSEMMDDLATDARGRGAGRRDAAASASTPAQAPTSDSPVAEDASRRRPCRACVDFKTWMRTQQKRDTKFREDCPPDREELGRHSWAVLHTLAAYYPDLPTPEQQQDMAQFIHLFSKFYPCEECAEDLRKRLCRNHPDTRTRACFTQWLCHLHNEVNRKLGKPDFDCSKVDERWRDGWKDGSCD

[2] = biological target: T1, Heat shock factor protein 1 (Mus musculus, UniProt P38532); experiment: decrease of HSF1-responsive luciferase luminescence – cell-based, NIH3T3, dose retest, confirmation (AID 2382); assay type: functional;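 also: NIH3T3 fibroblasts with HSF1-driven luciferase reporter stressed by proteasome inhibitor MG132; luminescence from HSF1-driven luciferase expression after 8 hours of MG132 stress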
T1 sequence (P38532 whole entry): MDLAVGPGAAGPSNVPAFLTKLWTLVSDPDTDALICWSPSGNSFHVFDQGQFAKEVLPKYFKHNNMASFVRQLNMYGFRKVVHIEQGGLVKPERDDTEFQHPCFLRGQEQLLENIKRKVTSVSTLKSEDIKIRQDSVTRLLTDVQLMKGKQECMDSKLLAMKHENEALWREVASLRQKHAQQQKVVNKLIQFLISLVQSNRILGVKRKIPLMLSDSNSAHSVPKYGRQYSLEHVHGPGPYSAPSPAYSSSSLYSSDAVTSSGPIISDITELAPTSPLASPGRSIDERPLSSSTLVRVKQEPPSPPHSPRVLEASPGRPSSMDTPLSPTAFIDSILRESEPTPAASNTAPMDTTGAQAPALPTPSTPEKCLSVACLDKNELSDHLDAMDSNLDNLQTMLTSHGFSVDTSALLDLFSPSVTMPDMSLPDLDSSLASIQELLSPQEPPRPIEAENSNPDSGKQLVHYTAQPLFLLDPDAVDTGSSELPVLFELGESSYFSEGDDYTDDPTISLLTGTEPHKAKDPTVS

[3] = reduction of Shn3 3'UTR-driven luciferase in osteoblasts – cell-based, Clone20 osteoblasts, firefly luciferase, cherry-picked, dose response (AID 624132); assay type: functional;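 also: firefly luciferase luminescence from reporter carrying the Shn3 3'UTR in osteoblasts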
[4] = non-specific 3'UTR reporter inhibition in Clone20-Shn3RL – cell-based, Renilla luciferase, cherry-picked, counter-screen for Shn3 inhibitor project, dose response (AID 624133); assay type: functional
Cytochrome P450 1A2 = biological target: T2, Cytochrome P450 1A2 (Homo sapiens, UniProt P05177);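 also: PubChem cytochrome P450 panel assay, CYP1A2 panel member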
T2 sequence (P05177 whole entry): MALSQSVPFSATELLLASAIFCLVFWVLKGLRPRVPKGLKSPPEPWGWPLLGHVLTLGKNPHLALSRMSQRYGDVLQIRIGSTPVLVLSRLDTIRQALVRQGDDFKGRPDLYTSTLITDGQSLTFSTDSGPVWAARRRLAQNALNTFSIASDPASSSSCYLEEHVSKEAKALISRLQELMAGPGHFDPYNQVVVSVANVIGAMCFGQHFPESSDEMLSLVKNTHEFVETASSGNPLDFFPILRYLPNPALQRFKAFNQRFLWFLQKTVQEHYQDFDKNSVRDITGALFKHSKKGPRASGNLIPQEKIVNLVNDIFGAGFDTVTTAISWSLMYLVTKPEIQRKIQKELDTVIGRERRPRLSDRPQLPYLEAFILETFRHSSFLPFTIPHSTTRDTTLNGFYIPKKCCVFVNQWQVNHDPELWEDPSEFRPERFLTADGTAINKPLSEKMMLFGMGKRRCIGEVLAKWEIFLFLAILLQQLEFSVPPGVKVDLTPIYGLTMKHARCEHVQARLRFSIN

Cytochrome P450 2C9 = Cytochrome P450 2C9 (Homo sapiens, UniProt P11712)
Sequence of Cytochrome P450 2C9 (P11712 whole entry): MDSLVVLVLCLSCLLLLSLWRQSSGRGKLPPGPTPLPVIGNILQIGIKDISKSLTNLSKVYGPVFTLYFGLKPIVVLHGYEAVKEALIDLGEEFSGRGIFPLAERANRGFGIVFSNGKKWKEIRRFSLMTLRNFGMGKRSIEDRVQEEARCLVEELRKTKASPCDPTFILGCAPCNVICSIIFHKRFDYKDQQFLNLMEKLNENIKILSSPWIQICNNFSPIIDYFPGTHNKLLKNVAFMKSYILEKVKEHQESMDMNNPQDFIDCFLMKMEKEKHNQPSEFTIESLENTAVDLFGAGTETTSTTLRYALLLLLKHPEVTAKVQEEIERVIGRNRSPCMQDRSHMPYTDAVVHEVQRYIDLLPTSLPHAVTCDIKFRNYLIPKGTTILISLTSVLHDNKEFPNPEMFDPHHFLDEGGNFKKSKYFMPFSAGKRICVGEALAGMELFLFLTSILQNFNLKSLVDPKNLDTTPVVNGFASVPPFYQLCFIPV

[5] = loss of viability in HepG2 cells – cell-based, CellTiter-Glo, cherry-picked, cytotoxicity control for Shn3 inhibitor project, dose response (AID 624134); assay type: functional
[6] = NIH-3T3 fibroblast cytotoxicity, dose response, cytotoxicity control, cell-based, fluorescence, Alamar Blue, secondary assay (AID 2327); assay type: functional;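 also: NIH-3T3 mouse fibroblasts cultured with fluconazole at 8 µg/mL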
[7] = Luminescence Cell-Based Dose Response HTS to Identify Activators of Luciferase Translation or Activity in H4 […] Cells. [Related pubchem assays: 1829 (Project Summary), 1814 (Primary HTS)]; assay type: functional
H4 = experiment: Luminescence Cell-Based Dose Response HTS to Identify Activators of 5'UTR Stem-Loop Driven Prion Protein mRNA Translation in H4 Neuroglioblastoma Cells. [Related pubchem assays: 1829 (Project Summary), 1814 (Primary HTS)]; assay type: functional; conditions: Homo sapiens
[8] = tested on: Streptococcus sp. 'group A'; experiment: Streptococcus pyogenes SK(-)GAS viability under kanamycin – luminescence, BacTiterGlo, confirmation, counter-screen for streptokinase expression inhibitor project, dose response (AID 1900); assay type: functional, organism-based
Streptokinase A = biological target: T3, Streptokinase A (Streptococcus pyogenes serotype M1, UniProt P10520); experiment: viability-normalized secreted streptokinase activity reduction – plasminogen activation absorbance, OD405, dose response (AID 1914); assay type: functional, Streptococcus pyogenes M1 GAS;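 also: secreted streptokinase activity via plasminogen activation per viability signal from cell pellet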
T3 sequence (P10520 whole entry): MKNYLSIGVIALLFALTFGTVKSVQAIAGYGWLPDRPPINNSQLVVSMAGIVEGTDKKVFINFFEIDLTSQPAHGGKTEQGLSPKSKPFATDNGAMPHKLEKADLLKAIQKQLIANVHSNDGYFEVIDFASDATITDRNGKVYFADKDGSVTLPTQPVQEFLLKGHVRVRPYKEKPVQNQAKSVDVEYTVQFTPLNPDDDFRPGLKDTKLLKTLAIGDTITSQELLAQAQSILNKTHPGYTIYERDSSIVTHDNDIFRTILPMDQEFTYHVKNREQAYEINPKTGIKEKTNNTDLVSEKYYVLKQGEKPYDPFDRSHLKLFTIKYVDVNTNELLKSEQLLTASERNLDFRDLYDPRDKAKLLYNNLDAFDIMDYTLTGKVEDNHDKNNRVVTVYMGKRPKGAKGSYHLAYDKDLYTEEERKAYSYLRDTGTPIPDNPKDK

Streptococcus = experiment: GAS UMAA2166 growth inhibition – luminescence, BacTiterGlo, counter-screen for streptokinase expression inhibitor project, dose response (AID 1915); assay type: functional, organism-based;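 also: potency for reduction of bacterial viability or growth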

Sequence of Paired box protein Pax-8 (Q06710 whole entry): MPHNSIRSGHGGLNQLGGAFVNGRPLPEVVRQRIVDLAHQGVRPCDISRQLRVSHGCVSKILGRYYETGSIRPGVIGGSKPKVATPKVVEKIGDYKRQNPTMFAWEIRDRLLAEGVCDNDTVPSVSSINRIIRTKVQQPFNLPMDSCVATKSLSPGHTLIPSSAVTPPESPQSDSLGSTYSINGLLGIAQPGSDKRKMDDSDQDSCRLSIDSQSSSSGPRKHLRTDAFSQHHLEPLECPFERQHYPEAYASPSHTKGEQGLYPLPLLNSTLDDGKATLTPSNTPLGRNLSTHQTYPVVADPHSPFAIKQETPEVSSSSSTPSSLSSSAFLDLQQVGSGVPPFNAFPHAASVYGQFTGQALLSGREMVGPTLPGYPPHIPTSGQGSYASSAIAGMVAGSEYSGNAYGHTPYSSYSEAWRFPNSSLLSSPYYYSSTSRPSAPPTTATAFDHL

CCCN(C)C[C@H]1OCCCC[C@@H](C)Oc2ccc(NC(=O)c3ccccc3)cc2C(=O)N([C@H](C)CO)C[C@H]1C
AC50 (Paired box protein Pax-8): 69.5 µM (active)

COc1ccc(OC)c2nc(O)c(CCNS(=O)(=O)c3ccc(Cl)cc3)cc12
AC50 (Cytochrome P450 2C19): 8.91 µM (inconclusive)
AC50 (Cytochrome P450 2D6): 31.6 µM (inconclusive)
AC50 (Cytochrome P450 3A4): 5.62 µM (inconclusive)

CC(C)CN1C(=O)c2ccc(C(=O)Nc3ccccc3C(=O)O)cc2C1=O
AC50 [1]: > 100 µM (inactive)

CC(=O)Oc1ccc(OC(C)=O)c(SCCCCCCl)c1
EC50 [2]: 7.65 µM (active)
AC50 [3]: 2.58 µM (active)
AC50 [4]: 7.84 µM (active)

COc1ccc(S(=O)(=O)N2CCN(CC(=O)Nc3cc(OC)cc(OC)c3)CC2)cc1
AC50 (Cytochrome P450 2D6): 20 µM (inconclusive)

Cc1cc(NC(=O)c2ccc(S(=O)(=O)Nc3ccccc3)cc2)no1
AC50 (Cytochrome P450 2D6): 25.1 µM (inconclusive)

CCc1cc2c(nc1CC)CCN(CC/C(C)=N/O[C@@H](C)c1cn([C@@H]3COC[C@@H]3O)nn1)C2
AC50 (Cytochrome P450 2D6): 2.51 µM (inconclusive)

Cc1nc2nc(C)c(CCC(=O)NCCCN3CCN(c4cccc(Cl)c4)CC3)c(C)n2n1
AC50 (Cytochrome P450 2C19): 25.1 µM (inconclusive)
AC50 (Cytochrome P450 2D6): 12.6 µM (inconclusive)

N=C(N)SCc1nc(-c2ccc(Cl)cc2)no1
AC50 (Cytochrome P450 2D6): 3.16 µM (inconclusive)
AC50 (Cytochrome P450 3A4): 5.01 µM (inconclusive)

Cc1cc(NC(=O)Nc2ccc(N(C)C)cc2)c2cc(F)cc(F)c2n1
AC50 (Cytochrome P450 2D6): 31.6 µM (inconclusive)

CCCCOc1cc(C(=O)NCCN(CC)CC)c2ccccc2n1 [DIBUCAINE]
AC50 (Cytochrome P450 2D6): 7.94 µM (inconclusive)

CC(C)c1ccc(NC(=O)C(c2ccccc2)N2CCN(C=O)CC2)cc1 (configuration not stated)
AC50 (Cytochrome P450 2C19): 28.2 µM (inconclusive)
AC50 (Cytochrome P450 2D6): 14.1 µM (inconclusive)
AC50 (Cytochrome P450 1A2): 31.6 µM (inconclusive)
AC50 (Cytochrome P450 3A4): 11.2 µM (inconclusive)
AC50 (Cytochrome P450 2C9): 14.1 µM (inconclusive)

CCOC(=O)Cc1csc(NC(=S)NC(=O)c2ccc(F)cc2)n1
AC50 (Cytochrome P450 1A2): 1.12 µM (inconclusive)
AC50 (Cytochrome P450 3A4): 17.8 µM (inconclusive)
AC50 (Cytochrome P450 2C9): 1.26 µM (inconclusive)

COc1ccc(-n2c(=O)c(-c3ccc(Cl)cc3)nc3cnc(N4CCNCC4)nc32)cc1
AC50 (Cytochrome P450 1A2): 12.6 µM (inconclusive)

NC(=O)CC(NC(=O)c1ccccc1)c1ccc(N2CCC(Cc3ccccc3)CC2)c([N+](=O)[O-])c1 (configuration not stated)
AC50 [3]: 2.61 µM (active)
AC50 [5]: 2.74 µM (active)
AC50 [4]: 4.2 µM (active)

C[N+](C)(C)/N=C\c1ccc(O)c(O)c1
AC50 (Cytochrome P450 2D6): 2 µM (inconclusive)
AC50 (Cytochrome P450 1A2): 10 µM (inconclusive)

O=C(Nc1ccccc1)c1cc(-n2cnnc2)ccc1Cl
AC50 (Cytochrome P450 1A2): 12.6 µM (inconclusive)
AC50 (Cytochrome P450 2C9): 25.1 µM (inconclusive)

OCC1OC(n2cnc3c(O)nnnc32)C(O)C1O (configuration not stated)
AC50 (Paired box protein Pax-8): 0.785 µM (active)

COc1cccc(CC(C(=O)Nc2cc(C)ccc2C)c2nn[nH]n2)c1OC (configuration not stated)
AC50 (Cytochrome P450 2D6): 15.8 µM (inconclusive)
AC50 (Cytochrome P450 3A4): 25.1 µM (inconclusive)

O=C(NCc1cccnc1)c1ccc(COc2ccccc2Cl)cc1
AC50 [1]: 0.055 µM (active)

Nc1n[nH]c(SCC(=O)Nc2ccccc2Sc2ccc(Cl)cc2)n1
AC50 (Cytochrome P450 2D6): 12.6 µM (inconclusive)

COc1ccc(-c2cc(-c3cc(F)ccc3O)[nH]n2)cc1OC
EC50 [6]: > 150 µM (inactive)
AC50 (Cytochrome P450 2D6): 28.2 µM (inconclusive)
AC50 (Cytochrome P450 2C9): 39.8 µM (inconclusive)

Nc1cccc(/C=C/c2ccncc2)c1
AC50 [1]: 0.59 µM (active)

OCCn1cnc2c(SCc3ccccc3)ncnc21
AC50 (Cytochrome P450 1A2): 3.16 µM (inconclusive)

CC(C)=CCNc1ncnc2nc[nH]c12
AC50 (Cytochrome P450 1A2): 6.31 µM (inconclusive)

O=[N+]([O-])c1ccc(-c2cn(-c3ccccc3F)c(=S)[nH]2)cc1
AC50 [1]: > 100 µM (inactive)

O=C(NCc1ccco1)c1cc(C(=O)C2CC2)c[nH]1
AC50 (Cytochrome P450 1A2): 0.2 µM (inconclusive)
AC50 (Cytochrome P450 2C9): 39.8 µM (inconclusive)

CCc1ccc(CCN2CCCCC2)nc1
AC50 (Cytochrome P450 1A2): 5.01 µM (inconclusive)

Cc1ccc(C(=O)NNc2ncnc3ccccc23)cc1
EC50 [7]: 6.62 µM (active)
EC50 (H4): > 120 µM (not active)

COc1cc(/C=C2/C(=O)NN(c3ccccc3)C2=O)cc(Br)c1O
AC50 [1]: 0.484 µM (active)

CCc1ccccc1N1C(=O)CC(N2CCc3ccccc32)C1=O (configuration not stated)
AC50 [1]: 2.81 µM (active)

O=C(CSc1nnc(-c2ccc(Cl)cc2)o1)N1CCOCC1
EC50 [7]: 46.3 µM (active)
EC50 (H4): 11.8 µM (active)

O=C(C1CC1)N1CCN=C1SCc1ccccc1Cl
AC50 [1]: 2.29 µM (active)

CCc1nn(C)c(-c2nnc(S)n2N)c1Cl
AC50 [1]: 0.673 µM (active)
AC50 (Cytochrome P450 2C9): 28.2 µM (inconclusive)

O=C(OC1CCN(CCCl)CC1)C(c1ccccc1)c1ccccc1
AC50 (Cytochrome P450 2D6): 31.6 µM (inconclusive)
AC50 (Cytochrome P450 1A2): 12.6 µM (inconclusive)
AC50 (Cytochrome P450 3A4): 10 µM (inconclusive)

N#CCC(=O)Nc1ccc(C(=O)NCc2cccc(Cl)c2)cc1
AC50 [1]: 9.8 µM (active)

CCc1ccc(CNC(=O)c2cc3c(C)nc4ccccc4c3o2)cc1
AC50 [3]: 2.02 µM (active)
AC50 [5]: > 70 µM (inactive)
AC50 [4]: 7.78 µM (active)

Nn1c(S)nnc1Cc1ccccc1
AC50 [1]: 0.134 µM (active)

CCN(CC)CCc1nc(-c2ccccc2)no1
AC50 (Cytochrome P450 2D6): 6.31 µM (inconclusive)

FC(F)(F)c1cccc(NC(S)=Nc2ccc(Cl)cc2Cl)c1
EC50 [8]: 4.48 µM (active)
EC50 (Streptokinase A): > 150 µM (not active)
EC50 (Streptococcus): 46.8 µM (active)
AC50 (Cytochrome P450 2D6): 7.94 µM (inconclusive)
AC50 (Cytochrome P450 3A4): 28.2 µM (inconclusive)
AC50 (Cytochrome P450 2C9): 31.6 µM (inconclusive)
